Assay results from patent publication US9839614B2, “Nanoparticle and polymer formulations for thyroid hormone analogs, antagonists, and formulations and uses thereof” (NANOPHARMACEUTICALS LLC, priority 2009, dated 2017).
Values joined by “and” are separate entries in the source; they are usually repeats but may differ in a detail not shown here. Equal entries are not always repeated.

What was measured:
GL261 tumor cells = test: GL261 apoptosis and necrosis with or without 5 Gy x-rays; assay type: cell-based, murine; details: Tetrac 2 μM, T-NP 0.2 μM
Experimental: FIG. 61 is a comparison of apoptosis on Tetrac (2 μM) and T-NP (0.2 μM) treated GL261 cells that were or were not exposed to 5 Gy x-rays. The effects of Tetrac and T-NP plus 5 Gy of x-rays on apoptosis appear to be supra-additive.
Apoptotic cells were identified using TUNEL staining (Terminal deoxynucleotidyl transferase dUTP nick end labeling (TUNEL)) (staining kit obtained from Oncor, Gaithersberg, Md.; ApoTag) (See Gavrieli et al., J. Cell. Biol. 1992. 119:493-501). The staining procedures were carried out as instructed by the manufacturer. Gill's hematoxylin was used as a counterstain to discriminate negative cells (purple) from positive cells (brown). Negative controls were performed by omitting the terminal deoxynucleotidyl transferase enzyme. […]
To perform FCM, a total of 10^6 adherent cells were trypsinized and washed once in ambient temperature PBS. […] Cells were left overnight at 4° C. in the dark and were then analyzed on a Coulter fluorescence-activated cell sorter (Coulter Electronics, Hialeah, Fla.). Cells were excited with a single 488 nm argon laser and the resulting fluorescence was detected using a 585 nm filter. Linear red-orange fluorescence (FL3) data were collected in list format and 10,000 events were collected. The distribution of cells within the cell cycle (sub-G1, G1, S, and G2 M phases) was determined using a Coulter software program.

[1] = tested on: Human medullary carcinoma of the thyroid (MTC) cells; test: Tumor growth and angiogenesis in the CAM cancer implant model; assay type: in vivo, chick; details: 1 μg/CAM, 8 days, n=8
Description: Penicillin streptomycin (1%) was present in both culture media. […] Water and food were provided ad libitum.

[2] = tested on: GL261 murine brain tumor cells; test: GL261 single dose 250 kVp x-ray survival (SHMT and LQ analysis); assay type: cell-based
Experimental: To irradiate 25 cm^2 flasks, an x-ray machine was used and (Philips 250 kVp Therapeutic X-ray Machine, Einhoven, […]) operated at 250 kVp and 15 mA with added filtration of 0.4 mm Thoreaus filter. The target to source distance was approximately 30 cm. Dose rates were measured using an R-meter (Victoreen R-meter, Cleveland, Ohio), and converted to absorbed (Gy) doses using appropriate temperature, pressure, and R to Gy conversion factors. The dose rate was 1 Gy per min. Flasks were irradiated at ambient temperature.
For […] analyses, survival data lying at or below 36.8% survival were analyzed by using the log fractional survival (log FxS) versus dose (D). Data were fit using linear regression analysis (SigmaPlot, V. 10, Systat Corp., Point Richmond, Calif.) to obtain the Y-intercept (or n, the extrapolation number) and the slope (1/D0), and their 95% confidence limits. (See Goldstein, A. In: Biostatistics, New York, The MacMillan Co., 1964, p. 140-146). The D0 value (Gy) is defined as the inverse of the slope, and the corrected Dq value (Gy) was then defined using the relationship: Dq(Gy)=ln n×D0(Gy) The 95% confidence limits on Dq were defined using error propagation. (See Chase, et al., In: Principles of Radioisotope Methodology. Minneapolis, Minn. Burgess Publ. Co., 1962, p. 68, 87-90). Statistics: LQ Analysis
For LQ analyses, data lying between a fractional survival of 1.00 and 0.05 were used. The fractional survival data at each dose were transformed using the relationship (−ln F×S/D) and plotted against dose (D). A regression analysis was performed to yield the LQ equation along with their 95% confidence limit values using a t-table with the appropriate (N−1) degrees of freedom. (See Goldstein, A. In: Biostatistics, New York, The MacMillan Co., 1964, p. 140-146).
To determine the tetrac modification factor (TMF), the survival at 2 Gy obtained for control cells was divided by the survival at 2 Gy for tetrac treated cells. The 95% confidence limits on the ratio were determined using error propagation techniques. (See Chase, et al. In: Princiiples of Radioisotope Methodology, Minneapolis, Minn., Burgress Publ. Co., 1962, p. 68, 87-90).

[3] = tested on: GL261 murine brain tumor cells; test: GL261 potentially lethal damage repair (PLDR); assay type: cell-based
Experimental: PLDR was also measured using the 10% survival level in both control and Tetrac treated-cells, and was also done for both exponentially growing and plateau phase cells. The total 10% survival dose was given, and then cells were placed back into the 37° C. incubator for various periods of time. At 0, 0.5, 1.0, 1.5, 2.0, 3.0, 4.0, 6.0, 8.0, and 10.0 hours, flasks were removed, and processed for survival assessment.
To investigate the effects of tetrac on SLDR and PLDR, cells were chosen that had been given a one-hour treatment with tetrac at two different times, i.e., at 70 and 270 hours post-seeding).

[4] = Exponential phase (with Tetrac)
[5] = Unfed plateau Phase (with Tetrac)

O=C(O)Cc1cc(I)c(Oc2cc(I)c(O)c(I)c2)c(I)c1 [Tetrac, tetraiodothyroacetic acid]
effect on apoptosis combined with 5 Gy of x-rays (GL261 tumor cells): supra-additive | effect on necrosis combined with x-rays (GL261 tumor cells; 120 hours): essentially additive | tumor growth [1]: effective inhibition | tumor-mediated angiogenesis [1]: significant inhibition | SF2 (survival at 2 Gy) ([2]; Exponential Phase (with Tetrac), 95% confidence limits in parentheses): 14.2 (10.8-18.8) % | SHMT n ([2]; Exponential phase (with Tetrac 2 μM, 1 h)): 1.06 | LQ α (Gy^−1) [2, 4]: 0.930 Gy^−1 | LQ β (Gy^−2) [2, 4]: 0.003 Gy^−2 | SHMT D0 (Gy) [2, 4]: 1.08 Gy and 1.08 (0.09). Gy | sensitization of hypoxic or oxic cells ([2]; Tetrac 2 μM): sensitize both oxic and hypoxic cells equally | LQ α (Gy^−1) [2, 5]: 1.157 Gy^−1 | LQ β (Gy^−2) [2, 5]: 0.066 Gy^−2 | SF2 (survival at 2 Gy) [2, 5]: 7.6% | SHMT D0 (Gy) [2, 5]: 0.75 Gy | SHMT Dq (Gy) [2, 5]: 0.00 Gy | SHMT n [2, 5]: 1.04 | increase of D0 ([2]; exponentially growing cells): 15% | reduction of Dq ([2]; exponentially growing cells): 100% | reduction of extrapolation number n ([2]; exponentially growing cells): 93% | survival of Tetrac treated cells at 2 Gy ([2]; non-Tetrac treated cells 32% (FIG. 57)): 13% | reduction of D0 ([2]; plateau phase cells): 6% | reduction of Dq ([2]; plateau phase cells): 100% | factor of inhibition of PLDR ([3]; exponential cells): 1.9 | factor of decrease of PLDR expression ([3]; plateau phase cells): 3.4
